Biological target: T1, human mAChR M1 (Homo sapiens, UniProt P11229)
T1 construct: host or cells: CHO-K1 (ATCC), stably transfected using Lipofectamine 2000
T1 sequence (P11229 1-460): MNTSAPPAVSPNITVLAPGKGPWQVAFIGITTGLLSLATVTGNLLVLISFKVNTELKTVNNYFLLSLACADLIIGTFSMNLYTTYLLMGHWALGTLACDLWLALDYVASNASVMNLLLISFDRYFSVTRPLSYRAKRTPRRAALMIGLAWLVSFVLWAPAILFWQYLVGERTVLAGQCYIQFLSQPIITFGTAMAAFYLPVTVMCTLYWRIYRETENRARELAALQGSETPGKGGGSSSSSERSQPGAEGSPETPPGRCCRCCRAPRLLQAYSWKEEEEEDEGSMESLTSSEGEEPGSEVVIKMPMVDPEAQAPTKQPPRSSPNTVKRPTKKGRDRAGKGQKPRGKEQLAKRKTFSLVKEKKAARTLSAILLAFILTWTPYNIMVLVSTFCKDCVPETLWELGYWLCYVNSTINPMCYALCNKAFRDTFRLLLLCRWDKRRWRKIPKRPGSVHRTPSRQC
Experiment: mAChR M1 cell-based functional assay (calcium mobilization, Fluo-4, FDSS)
Conditions: CHO-K1 cells stably expressing hM1, calcium flux; for Emax: PAM mode with EC20 acetylcholine; for EC50: concentration-dependent increase in the EC20 acetylcholine response
From the text: Chinese hamster ovary (CHO-K1) cells stably expressing rat (r)M1 were purchased from the American Type Culture Collection and cultured according to their indicated protocol. CHO cells stably expressing human (h)M2, hM3, and hM5 were described previously (Levey, et al., 1991); hM1 and hM4 cDNAs were purchased from Missouri S&T cDNA Resource; rM4 cDNA was provided by T. I. Bonner (National Institutes of Health, Bethesda, Md.). rM2 and rM3 were cloned from a rat brain cDNA library and sequence verified. hM1, rM2, rM3, hM4, and rM4 cDNAs were used to stably transfect CHO-K1 cells purchased from the American Type Culture Collection using Lipofectamine 2000. To make stable rM2, hM2, rM3, hM4, and rM4 cell lines for use in calcium mobilization assays, these cells also were stably transfected with a chimeric G-protein (Gqi5) (provided by B. R. Conklin, University of California, San Francisco) using Lipofectamine 2000. rM1, hM1, rM3, hM3, rM5, and hM5 cells were grown in Ham's F-12 medium containing 10% heat-inactivated fetal bovine serum (FBS), 20 mM HEPES, and 50 µg/mL G418 sulfate. rM2-Gqi5, hM2-Gqi5, and hM4-Gqi5 cells were grown in the same medium also containing 500 μg/mL Hygromycin B. Stable rM4-Gqi5 cells were grown in DMEM containing 10% heat-inactivated FBS, 20 mM HEPES, 400 μg/mL G418 sulfate, and 500 μg/mL Hygromycin B.
For high throughput measurement of agonist-evoked increases in intracellular calcium, CHO-K1 cells stably expressing muscarinic receptors were plated in growth medium lacking G418 and hygromycin at 15,000 cells/20 μL/well in Greiner 384-well black-walled, tissue culture (TC)-treated, clear-bottom plates (VWR). Cells were incubated overnight at 37° C. and 5% CO2. The next day, cells were washed using an ELX 405 (BioTek) with four washes ([…]) of assay buffer then aspirated to 20 μL. Next, 20 μL of 16 μM Fluo-4/acetoxymethyl ester (Invitrogen, Carlsbad, Calif.) prepared as a 2.3 mM stock in DMSO and mixed in a 1:1 ratio with 10% (w/v) Pluronic F-127 and diluted in assay buffer was added to the wells and the cell plates were incubated for 50 min at 37° C. and 5% CO2. Dye was removed by washing with the ELX 405 (four 80 μL washes of assay buffer) then aspirated to 20 μL. Compound master plates were formatted in an 11 point CRC format (1:3 dilutions) in 100% DMSO with a starting concentration of 10 mM using the BRAVO liquid handler (Agilent). Test compound CRCs were then transferred to daughter plates (240 nL) using the Echo acoustic plate reformatter (Labcyte, Sunnyvale, Calif.) and then diluted into assay buffer (40 μL) to a 2× stock using a Thermo Fisher Combi (Thermo Fisher Scientific, Waltham, Mass.).
Calcium flux was measured using the Functional Drug Screening System (FDSS) 6000 (Hamamatsu Corporation, Tokyo, Japan) as an increase in the fluorescent static ratio. Compounds were applied to cells (20 μL, 2×) using the automated system of the FDSS 6000 at 4 s into the 300 s protocol and the data were collected at 1 Hz. At 144 s into the 300s protocol, 10 μL of an EC20 concentration of the muscarinic receptor agonist acetylcholine was added (5×), followed by the addition of 12 μL an EC80 concentration of acetylcholine at the 230 s time point (5×). Agonist activity was analyzed as a concentration-dependent increase in calcium mobilization upon compound addition. Positive allosteric modulator activity was analyzed as a concentration-dependent increase in the EC20 acetylcholine response. Antagonist activity was analyzed as a concentration-dependent decrease in the EC80 acetylcholine response. Concentration-response curves were generated using a four-parameter logistical equation in XLfit curve fitting software (IDBS, Bridgewater, N.J.) for Excel (Microsoft, Redmond, Wash.) or Prism (GraphPad Software, Inc., San Diego, Calif.).
Activity (EC50 and Emax) was determined in the mAChR M1 cell-based functional assay as described above and the data are shown in Table 2. […]

Emax | EC50 | Compound
58% | 3.41 µM | Cn1cc2c(-c3cc(F)c(CN4Cc5cn(CC6CCCO6)nc5C4=O)c(F)c3)cccc2n1 (stereo not drawn) [Compound 17, 5-(2,6-difluoro-4-(2-methyl-2H-indazol-4-yl)benzyl)-2-((tetrahydrofuran-2-yl)methyl)-4,5-dihydropyrrolo[3,4-c]pyrazol-6(2H)-one]
40% | – | Cn1cc(-c2cc(F)c(CN3Cc4ncsc4C3=O)c(F)c2)cn1 [Compound 14, 5-(2,6-difluoro-4-(1-methyl-1H-pyrazol-4-yl)benzyl)-4,5-dihydro-6H-pyrrolo[3,4-d]thiazol-6-one]
45% | – | Cc1cc(-c2cc(F)c(CN3Cc4sccc4C3=O)c(F)c2)cc2cn[nH]c12 [Compound 29, 5-(2,6-difluoro-4-(7-methyl-1H-indazol-5-yl)benzyl)-5,6-dihydro-4H-thieno[2,3-c]pyrrol-4-one]
77% | 3.22 µM | Cc1nn(C)cc1-c1cc(F)c(CN2Cc3cnn(CC4CCCO4)c3C2=O)c(F)c1 (stereo not drawn) [Compound 37, 5-(4-(1,3-dimethyl-1H-pyrazol-4-yl)-2,6-difluorobenzyl)-1-((tetrahydrofuran-2-yl)methyl)-4,5-dihydropyrrolo[3,4-c]pyrazol-6(1H)-one]
33% | 3.85 µM | Cn1cc2cc(-c3cc(F)c(CN4Cc5ccn(CC6CCCO6)c5C4=O)c(F)c3)ccc2n1 (stereo not drawn) [Compound 8, 5-(2,6-difluoro-4-(2-methyl-2H-indazol-5-yl)benzyl)-1-((tetrahydrofuran-2-yl)methyl)-4,5-dihydropyrrolo[3,4-b]pyrrol-6(1H)-one]
47% | – | Cn1cc(-c2ccc(CN3Cc4ncsc4C3=O)c(F)c2)cn1 [Compound 12, 5-(2-fluoro-4-(1-methyl-1H-pyrazol-4-yl)benzyl)-4,5-dihydro-6H-pyrrolo[3,4-d]thiazol-6-one]
42% | 0.99 µM | Cn1cc2cc(-c3cc(F)c(CN4Cc5occc5C4=O)c(F)c3)ccc2n1 [Compound 57, 5-(2,6-difluoro-4-(2-methyl-2H-indazol-5-yl)benzyl)-5,6-dihydro-4H-furo[2,3-c]pyrrol-4-one]
50% | – | Cn1cc(-c2ccc(CN3Cc4sccc4C3=O)cc2)cn1 [Compound 46, 5-(4-(1-methyl-1H-pyrazol-4-yl)benzyl)-5,6-dihydro-4H-thieno[2,3-c]pyrrol-4-one]
57% | 5.18 µM | Cn1cc2c(-c3cc(F)c(CN4Cc5cn(CCN6CCCC6)nc5C4=O)c(F)c3)cccc2n1 [Compound 21, 5-(2,6-difluoro-4-(2-methyl-2H-indazol-4-yl)benzyl)-2-(2-(pyrrolidin-1-yl)ethyl)-4,5-dihydropyrrolo[3,4-c]pyrazol-6(2H)-one]
46% | – | Cn1ccc(-c2ccc(CN3Cc4sccc4C3=O)c(F)c2)n1 [Compound 42, 5-(2-fluoro-4-(1-methyl-1H-pyrazol-3-yl)benzyl)-5,6-dihydro-4H-thieno[2,3-c]pyrrol-4-one]
51% | 3.45 µM | Cc1nn(C)cc1-c1cc(F)c(CN2Cc3ccn(CC4CCCO4)c3C2=O)c(F)c1 (stereo not drawn) [Compound 51, 5-(4-(1,3-dimethyl-1H-pyrazol-4-yl)-2,6-difluorobenzyl)-1-((tetrahydrofuran-2-yl)methyl)-4,5-dihydropyrrolo[3,4-b]pyrrol-6(1H)-one]
51% | 1.85 µM | Cn1cc2cc(-c3ccc(CN4Cc5ncsc5C4=O)c(F)c3)ccc2n1 [Compound 13, 5-(2-fluoro-4-(2-methyl-2H-indazol-5-yl)benzyl)-4,5-dihydro-6H-pyrrolo[3,4-d]thiazol-6-one]
84% | 1.59 µM | Cn1cc2c(-c3cc(F)c(CN4Cc5sccc5C4=O)c(F)c3)cccc2n1 [Compound 1, 5-(2,6-difluoro-4-(2-methyl-2H-indazol-4-yl)benzyl)-5,6-dihydro-4H-thieno[2,3-c]pyrrol-4-one]
70% | – | Cc1nn(C)cc1-c1ccc(CN2Cc3sccc3C2=O)c(F)c1 [Compound 43, 5-(4-(1,3-dimethyl-1H-pyrazol-4-yl)-2-fluorobenzyl)-5,6-dihydro-4H-thieno[2,3-c]pyrrol-4-one]
73% | – | Cn1cc(-c2cc(F)c(CN3Cc4cnn(CC5CCCO5)c4C3=O)c(F)c2)cn1 (stereo not drawn) [Compound 35, 5-(2,6-difluoro-4-(1-methyl-1H-pyrazol-4-yl)benzyl)-1-((tetrahydrofuran-2-yl)methyl)-4,5-dihydropyrrolo[3,4-c]pyrazol-6(1H)-one]
74% | 9.15 µM | Cn1cc2c(-c3cc(F)c(CN4Cc5cn(CCO)nc5C4=O)c(F)c3)cccc2n1 [Compound 25, 5-(2,6-difluoro-4-(2-methyl-2H-indazol-4-yl)benzyl)-2-(2-hydroxyethyl)-4,5-dihydropyrrolo[3,4-c]pyrazol-6(2H)-one]
63% | – | Cn1cc2c(-c3cc(F)c(CN4Cc5cnn(Cc6ccccn6)c5C4=O)c(F)c3)cccc2n1 [Compound 6, 5-(2,6-Difluoro-4-(2-methyl-2H-indazol-4-yl)benzyl)-1-(pyridin-2-ylmethyl)-4,5-dihydropyrrolo[3,4-c]pyrazol-6(1H)-one]
50% | – | Cn1cc2cccc(-c3cc(F)c(CN4Cc5occc5C4=O)c(F)c3)c2n1 [Compound 60, 5-(2,6-difluoro-4-(2-methyl-2H-indazol-7-yl)benzyl)-5,6-dihydro-4H-furo[2,3-c]pyrrol-4-one]
80% | 0.91 µM | Cn1cc2c(-c3cc(F)c(CN4Cc5cnn(CCO)c5C4=O)c(F)c3)cccc2n1 [Compound 24, 5-(2,6-difluoro-4-(2-methyl-2H-indazol-4-yl)benzyl)-1-(2-hydroxyethyl)-4,5-dihydropyrrolo[3,4-c]pyrazol-6(1H)-one]
93% | 0.92 µM | Cn1cc2c(-c3cc(F)c(CN4Cc5cnn(CC6CCCO6)c5C4=O)c(F)c3)cccc2n1 (stereo not drawn) [Compound 16, 5-(2,6-difluoro-4-(2-methyl-2H-indazol-4-yl)benzyl)-1-((tetrahydrofuran-2-yl)methyl)-4,5-dihydropyrrolo[3,4-c]pyrazol-6(1H)-one]
69% | – | Cn1cc(-c2ccc(CN3Cc4sccc4C3=O)c(F)c2)cn1 [Compound 41, 5-(2-fluoro-4-(1-methyl-1H-pyrazol-4-yl)benzyl)-5,6-dihydro-4H-thieno[2,3-c]pyrrol-4-one]
78% | – | Cn1cc2c(-c3cc(F)c(CN4Cc5nc[nH]c5C4=O)c(F)c3)cccc2n1 [Compound 3, 5-(2,6-difluoro-4-(2-methyl-2H-indazol-4-yl)benzyl)-5,6-dihydropyrrolo[3,4-d]imidazol-4(3H)-one]

Reference: patent US20190330226A1, “POSITIVE ALLOSTERIC MODULATORS OF THE MUSCARINIC ACETYLCHOLINE RECEPTOR M1” (Vanderbilt University, priority 2018, published 2019)
